Values quoted from earlier work, collected in US20240122923A1, “METHODS OF TREATING HIDRADENITIS SUPPURATIVA” (AbbVie Inc., priority 2022, published 2024).

Tested on: HS
Conditions: 24-week treatment period; cited from earlier work

etanercept
improvement of HS: failed to show improvement of HS
